Calls of active or inactive are those of the source. No cut-off for these calls is given here.
Legend:
[1] = target: T1, Protein deacetylase HDAC6 (Homo sapiens, UniProt Q9UBN7); assay: Inhibition of HDAC6 (unknown origin) by fluorescence based assay
T1 sequence (Q9UBN7 whole entry): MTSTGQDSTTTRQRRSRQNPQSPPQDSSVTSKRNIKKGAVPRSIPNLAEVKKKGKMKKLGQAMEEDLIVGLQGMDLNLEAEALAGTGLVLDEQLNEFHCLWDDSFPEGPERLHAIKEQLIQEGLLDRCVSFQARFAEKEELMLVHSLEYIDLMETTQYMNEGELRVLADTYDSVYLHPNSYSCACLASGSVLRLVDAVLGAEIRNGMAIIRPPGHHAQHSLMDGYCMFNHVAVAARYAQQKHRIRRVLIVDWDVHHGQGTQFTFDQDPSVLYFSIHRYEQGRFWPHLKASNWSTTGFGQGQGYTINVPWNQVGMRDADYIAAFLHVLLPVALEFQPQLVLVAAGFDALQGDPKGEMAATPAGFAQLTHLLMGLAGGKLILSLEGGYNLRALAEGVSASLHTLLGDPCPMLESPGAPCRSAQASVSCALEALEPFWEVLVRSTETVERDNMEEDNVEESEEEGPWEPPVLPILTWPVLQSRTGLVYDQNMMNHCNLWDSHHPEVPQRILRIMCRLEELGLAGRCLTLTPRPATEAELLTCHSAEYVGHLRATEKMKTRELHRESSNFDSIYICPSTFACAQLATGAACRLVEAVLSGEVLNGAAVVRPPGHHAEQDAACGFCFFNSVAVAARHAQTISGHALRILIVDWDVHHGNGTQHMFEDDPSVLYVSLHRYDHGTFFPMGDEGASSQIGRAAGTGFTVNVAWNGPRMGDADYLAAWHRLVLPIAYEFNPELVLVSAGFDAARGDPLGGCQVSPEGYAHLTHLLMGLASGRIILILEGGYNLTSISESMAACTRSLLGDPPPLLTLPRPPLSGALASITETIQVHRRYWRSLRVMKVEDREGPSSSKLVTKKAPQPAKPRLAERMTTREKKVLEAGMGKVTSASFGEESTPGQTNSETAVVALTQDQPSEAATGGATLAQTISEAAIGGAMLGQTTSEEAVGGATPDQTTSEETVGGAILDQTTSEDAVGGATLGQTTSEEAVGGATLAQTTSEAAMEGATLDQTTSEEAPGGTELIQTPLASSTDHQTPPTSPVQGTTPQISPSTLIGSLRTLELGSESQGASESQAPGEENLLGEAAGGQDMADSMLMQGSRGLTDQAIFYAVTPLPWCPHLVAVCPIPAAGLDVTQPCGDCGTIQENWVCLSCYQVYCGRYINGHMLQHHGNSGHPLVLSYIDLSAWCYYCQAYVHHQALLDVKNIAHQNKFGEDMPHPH

[2] = target: T2, Bromodomain-containing protein 4 (Homo sapiens, UniProt O60885); assay: Inhibition of BRD4 in human MV4-11 cells assessed as reduction in c-Myc expression at 10 to 1000 nM measured after 24 hrs by Western blot analysis; type: cell-based; conditions: dose 10-1000 nM
[3] = target: T2, Bromodomain-containing protein 4; assay: Inhibition of His-tagged BRD4 bromodomain 2 (unknown origin) using [Lys (5,8,12,16) Ac] H4(1-21) as substrate by fluorescence based assay
[4] = target: Histone deacetylase 1 (Homo sapiens, UniProt Q13547); assay: Inhibition of HDAC1 (unknown origin) by fluorescence based assay
[5] = system: MV4-11; assay: Antiproliferative activity against human MV4-11 cells assessed as cell viability after 72 hrs by CCK8 assay; type: functional, cell-based; conditions: MV4-11, 72 h
[6] = target: T2, Bromodomain-containing protein 4; assay: Inhibition of His-tagged BRD4 bromodomain 1 (unknown origin) using [Lys (5,8,12,16) Ac] H4(1-21) as substrate by fluorescence based assay

Histone deacetylase 1, sequence (Q13547 whole entry): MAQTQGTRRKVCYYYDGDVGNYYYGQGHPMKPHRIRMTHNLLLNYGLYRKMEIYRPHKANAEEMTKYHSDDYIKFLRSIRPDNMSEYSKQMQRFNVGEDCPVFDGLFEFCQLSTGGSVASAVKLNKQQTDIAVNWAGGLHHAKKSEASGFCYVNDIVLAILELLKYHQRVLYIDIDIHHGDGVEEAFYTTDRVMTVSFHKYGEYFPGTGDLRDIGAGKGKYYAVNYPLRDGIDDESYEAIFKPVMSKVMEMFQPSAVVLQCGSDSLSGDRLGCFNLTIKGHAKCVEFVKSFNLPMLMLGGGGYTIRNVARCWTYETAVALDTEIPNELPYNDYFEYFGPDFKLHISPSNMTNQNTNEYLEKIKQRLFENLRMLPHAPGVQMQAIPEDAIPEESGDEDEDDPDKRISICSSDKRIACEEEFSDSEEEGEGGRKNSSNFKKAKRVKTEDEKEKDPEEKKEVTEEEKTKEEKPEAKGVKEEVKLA

| IC50 [1] [nM] | inhibition [2] | IC50 [3] [nM] | IC50 [4] [nM] | IC50 [5] [nM] | IC50 [6] [nM] | Compound |
| --- | --- | --- | --- | --- | --- | --- |
| 3.4 | Active | 3.8 | 44.4 | 610 | 21.4 | Cn1cc(-c2ccccc2Oc2ccccc2)c2cc(C(=O)NCCCCCC(=O)NO)[nH]c2c1=O |
| – | – | 122 | 94 | – | 61 | Cc1ccc(-c2cn(C)c(=O)c3[nH]c(C(=O)NCc4ccc(C(=O)Nc5ccccc5N)cc4)cc23)cc1 |
| – | – | 61.2 | 46.8 | 320 | 40.5 | COc1ccc(-c2cn(C)c(=O)c3[nH]c(C(=O)NCc4ccc(C(=O)Nc5ccccc5N)cc4)cc23)cc1 |
| – | – | 75.8 | 52 | 230 | 47.8 | Cn1cc(-c2ccccc2)c2cc(C(=O)NCc3ccc(C(=O)Nc4ccccc4N)cc3)[nH]c2c1=O |
| – | – | 149 | 63.9 | 310 | 117 | Cc1ccccc1-c1cn(C)c(=O)c2[nH]c(C(=O)NCc3ccc(C(=O)Nc4ccccc4N)cc3)cc12 |
| – | – | 55.3 | 20.8 | 230 | 85.9 | Cn1cc(-c2ccccc2F)c2cc(C(=O)NCc3ccc(C(=O)Nc4ccccc4N)cc3)[nH]c2c1=O |
| – | – | 7 | 333 | 420 | 3.9 | COc1ccc(C(C)(C)O)cc1-c1cn(C)c(=O)c2[nH]c(C(=O)NCc3ccc(C(=O)Nc4ccccc4N)cc3)cc12 |
| – | – | 158 | 134 | 190 | 65.5 | Cn1cc(-c2cccc(Cl)c2)c2cc(C(=O)NCc3ccc(C(=O)Nc4ccccc4N)cc3)[nH]c2c1=O |
| – | – | 30 | 28.1 | 2200 | 20 | Cn1cc(-c2cccc(C(C)(C)O)c2)c2cc(C(=O)NCc3ccc(C(=O)Nc4ccccc4N)cc3)[nH]c2c1=O |
| > 500 | – | 11.3 | > 500 | 240 | 73 | Cn1cc(-c2ccccc2Oc2ccccc2)c2cc(C(=O)NCCCCC(=O)Nc3ccccc3N)[nH]c2c1=O |
| 5.5 | – | 5.8 | 29.8 | 220 | 26.2 | Cn1cc(-c2cc(C(C)(C)O)ccc2OC2CC2)c2cc(C(=O)NCCCCCCC(=O)NO)[nH]c2c1=O |
| – | – | > 10000 | – | 240 | > 10000 | Nc1ccccc1NC(=O)c1ccc(CNC(=O)OCc2cccnc2)cc1 [ENTINOSTAT] |
| – | – | 2.1 | 68.8 | 40 | 7.7 | Cn1cc(-c2cc(C(C)(C)O)ccc2OC2CC2)c2cc(C(=O)NCc3ccc(C(=O)Nc4ccccc4N)cc3)[nH]c2c1=O |
| – | – | 75.9 | 53.1 | 210 | 50.9 | Cn1cc(-c2cccc(F)c2)c2cc(C(=O)NCc3ccc(C(=O)Nc4ccccc4N)cc3)[nH]c2c1=O |
| 39.3 | – | 1.5 | 293 | 440 | 305 | Cc1cc(F)cc(C)c1Oc1ccc(C(C)(C)O)cc1-c1cn(C)c(=O)c2[nH]c(C(=O)NCc3ccc(C(=O)NO)cc3)cc12 |
| – | – | 364 | 240 | – | 146 | Cn1cc(-c2ccc(C(F)(F)F)cc2)c2cc(C(=O)NCc3ccc(C(=O)Nc4ccccc4N)cc3)[nH]c2c1=O |
| 7.9 | – | 6.9 | 20.8 | 420 | 252 | Cn1cc(-c2cc(C(C)(C)O)ccc2OC2CC2)c2cc(C(=O)NCc3ccc(C(=O)NO)cc3)[nH]c2c1=O |
| – | – | 105 | 54.9 | – | 52.8 | Cc1cccc(-c2cn(C)c(=O)c3[nH]c(C(=O)NCc4ccc(C(=O)Nc5ccccc5N)cc4)cc23)c1 |
| > 10000 | – | – | > 10000 | 250 | – | CCNC(=O)c1cc2c(-c3cc(C(C)(C)O)ccc3Oc3c(C)cc(F)cc3C)cn(C)c(=O)c2[nH]1 [ABBV-744] |

| IC50 [1] [nM] | inhibition [2] | IC50 [3] [nM] | IC50 [4] [nM] | IC50 [5] [nM] | IC50 [6] [nM] | Compound |
| --- | --- | --- | --- | --- | --- | --- |
| – | – | 79.9 | 47.3 | 220 | 44.1 | Cn1cc(-c2ccc(F)cc2)c2cc(C(=O)NCc3ccc(C(=O)Nc4ccccc4N)cc3)[nH]c2c1=O |
| – | – | > 10000 | – | – | > 10000 | O=C(CCCCCCC(=O)Nc1ccccc1)NO [VORINOSTAT] |
| 8.7 | – | 7.2 | 52 | 250 | 54 | Cn1cc(-c2cc(C(C)(C)O)ccc2Oc2ccc(F)cc2F)c2cc(C(=O)NCCCCCCC(=O)NO)[nH]c2c1=O |
| – | – | 36.6 | > 500 | 240 | 229 | Cc1cc(F)cc(C)c1Oc1ccc(C(C)(C)O)cc1-c1cn(C)c(=O)c2[nH]c(C(=O)NCc3ccc(C(=O)Nc4ccccc4N)cc3)cc12 |
| > 500 | – | 8.4 | 176 | 70 | 583 | Cn1cc(-c2ccccc2Oc2ccccc2)c2cc(C(=O)NCCCCCC(=O)Nc3ccccc3N)[nH]c2c1=O |
| 52 | – | 10 | 36 | 350 | 31.3 | CC(C)Oc1ccc(C(C)(C)O)cc1-c1cn(C)c(=O)c2[nH]c(C(=O)NCc3ccc(C(=O)NO)cc3)cc12 |
| – | – | 206 | 48.8 | – | 102 | Cn1cc(-c2ccccc2Cl)c2cc(C(=O)NCc3ccc(C(=O)Nc4ccccc4N)cc3)[nH]c2c1=O |
| – | – | 278 | 59.3 | – | 62.4 | Cn1cc(-c2ccc(Cl)cc2)c2cc(C(=O)NCc3ccc(C(=O)Nc4ccccc4N)cc3)[nH]c2c1=O |
| 144 | – | 103 | > 500 | 380 | 142 | Cn1cc(-c2ccccc2Oc2ccccc2)c2cc(C(=O)NCCCC(=O)NO)[nH]c2c1=O |
| – | – | 116 | 54.5 | 250 | 30.1 | COc1cccc(-c2cn(C)c(=O)c3[nH]c(C(=O)NCc4ccc(C(=O)Nc5ccccc5N)cc4)cc23)c1 |
| – | – | 15.3 | 116 | 130 | 22.8 | CC(C)Oc1ccccc1-c1cn(C)c(=O)c2[nH]c(C(=O)NCc3ccc(C(=O)Nc4ccccc4N)cc3)cc12 |
| – | – | 313 | > 500 | – | 823 | Cn1cc(-c2cccc(C(F)(F)F)c2)c2cc(C(=O)NCc3ccc(C(=O)Nc4ccccc4N)cc3)[nH]c2c1=O |
| > 500 | – | 15.4 | > 500 | 130 | 140 | Cn1cc(-c2ccccc2Oc2ccccc2)c2cc(C(=O)NCCCCCCC(=O)Nc3ccccc3N)[nH]c2c1=O |
| 15.6 | – | 12.4 | 74 | 190 | 76.7 | Cn1cc(-c2cc(C(C)(C)O)ccc2Oc2ccc(F)cc2F)c2cc(C(=O)NCc3ccc(C(=O)NO)cc3)[nH]c2c1=O |
| – | – | 3 | 229 | 100 | 13.4 | Cn1cc(-c2cc(C(C)(C)O)ccc2Oc2ccccc2)c2cc(C(=O)NCc3ccc(C(=O)Nc4ccccc4N)cc3)[nH]c2c1=O |
| – | – | 571 | 210 | – | 371 | Cn1cc(-c2ccccc2C(F)(F)F)c2cc(C(=O)NCc3ccc(C(=O)Nc4ccccc4N)cc3)[nH]c2c1=O |
| – | – | 47.6 | 57.6 | 200 | 22.6 | COc1ccccc1-c1cn(C)c(=O)c2[nH]c(C(=O)NCc3ccc(C(=O)Nc4ccccc4N)cc3)cc12 |
| – | – | 1.5 | 164 | 90 | 18.1 | Cn1cc(-c2cc(C(C)(C)O)ccc2Oc2ccc(F)cc2F)c2cc(C(=O)NCc3ccc(C(=O)Nc4ccccc4N)cc3)[nH]c2c1=O |

| Compound | IC50 [1] [nM] | inhibition [2] | IC50 [3] [nM] | IC50 [4] [nM] | IC50 [5] [nM] | IC50 [6] [nM] |
| --- | --- | --- | --- | --- | --- | --- |
| Cc1sc2c(c1C)C(c1ccc(Cl)cc1)=N[C@@H](CC(=O)Nc1ccc(O)cc1)c1nnc(C)n1-2 [BIRABRESIB] | > 10000 | – | – | > 10000 | 200 | – |
